One data set deals with H3N2 HongKong. The data set is described as follows: In vitro antiviral effect, MTT cell viability in infected MDCK cells. In kind it is cell-based, influenza A virus. The following applies: 0.001 pfu/cell, 72 hours, hydroxyurea up to 1,561 μg/ml.
The next data set has as its system Lee. The description is as above. It counts as cell-based, influenza B virus. The following applies: 0.001 pfu/cell, 72 hours, hydroxyurea up to 1,561 μg/ml.
In the next data set the test system is H1N1 PR8. Described as above. It counts as cell-based, influenza A virus. The following applies: 0.001 pfu/cell, 72 hours, hydroxyurea up to 1,561 μg/ml.
Data set [1] concerns mice infected with H1N1 influenza A virus (maPR8). Nature of the data set: Influenza virus-induced sepsis model (II), body weight and survival (Experimental Example 6). It counts as in vivo, BALB/c mice.
Data set [2] relates to mice infected with H1N1 influenza A (PR8 strain) virus. In kind it is in vivo, mice (BALB/c).
The test system of data set [3] is mice with sepsis induced by the Western Reserve strain of vaccinia virus. The following applies: mouse, in vivo.
The subject of a further data set is MDCK cells. The data set is described as follows: Cytotoxicity (CC50) by MTT assay. The following applies: 72 hours. In general terms: Formazan colour is commonly taken as a measure of viable cells.
The test system of data set [4] is mice infected with the WR strain of vaccinia virus. In kind it is in vivo, BALB/c mice. The following applies: for survival: WR low (1×10^5 pfu) or high (1×10^7 pfu) dose, HU 50 mg/kg/day i.p. days 0 to 14, G-CSF 25 μg/kg/day i.p. days 0 to 5; for lung tissue histology: compared with other groups.
Data set [5] relates to monkeys with systemic inflammatory syndrome induced by vaccinia virus VV^tk−. It counts as in vivo, cynomolgus monkeys. The protocol:
Male cynomolgus monkeys (n=3) aged 45 to 55 months were subjected to systemic administration of only VV^tk− (1×10^8 pfu), which induces a systemic inflammatory response, or both VV^tk− and hydroxyurea (VV^tk−: 1×10^8 pfu, HU: 80 mg/kg/day and 30 mg/kg/day). Then, toxicity was evaluated by measuring levels of systemic inflammation and pustules, body temperature, body weight, and the like.

Data set [6] has as its system mice infected with the WR strain of vaccinia virus. In kind it is in vivo. The following applies: WR 1×10^5 pfu; HU 80 mg/kg/day on days 2 to 14, started 2 days after infection.
Data set [7] deals with mice given wild-type WR strain of vaccinia virus. The data set is described as follows: Histological analysis (H&E) of liver and lung tissues after wild-type WR vaccinia virus (Experimental Example 2.2). The following applies: wild-type WR 1×10^7 pfu intranasal, HU 50 mg/kg, G-CSF 25 μg/kg. It counts as in vivo.
The test system of a further data set is mice given LPS. The data set is described as follows: LPS-induced sepsis model (II), survival and ANC (Experimental Example 7). It counts as in vivo, BALB/c mice. The following applies: for survival: until day 12; for ANC: blood on day 12. The protocol:
Twenty-one BALB/c mice (about 8 weeks old) were divided into 3 groups (LPS, LPS+HU_30, LPS+HU_60; n=7/group). All mice received intraperitoneal administration of LPS at 10 mg/kg on day 0. The mice of the group (LPS+HU_30) received hydroxyurea (30 mg/kg/day, from day -1 to day 3) once a day, and the mice of the group (LPS+HU_60) received hydroxyurea (60 mg/kg/day, from day -1 to day 3) twice a day. Survival of the mice of each group was measured until day 12 at 3-day intervals, and blood samples were collected on day 12 to check the absolute neutrophil count in blood.

Data set [8] concerns mouse model with sepsis induced by lipopolysaccharide (LPS, from Escherichia coli O55: B5). Nature of the data set: Bacterial LPS-induced sepsis model, survival (Experimental Example 1). In kind it is in vivo, mice. The following applies: LPS 10 mg/kg i.p., n=7. The protocol:
To identify whether treatment with hydroxyurea could increase survival through an immune response in a mouse model with sepsis induced by lipopolysaccharide (LPS, from Escherichia coli O55: B5L2880, Sigma), an animal experiment was performed.
Each group consisted of 7 mice, and intraperitoneal administration of LPS was performed at 10 mg/kg on day 0. Two groups excluding a control group were subjected to intraperitoneal administration of hydroxyurea at 30 mg/kg once a day or twice a day for 5 days per one week starting from the day before the treatment with LPS (FIG. 1).

The subject of data set [9] is monkeys with systemic inflammatory syndrome induced by the Western Reserve strain of vaccinia virus.
The mark [10] stands for this setting: co-administration vs virus only.
Setting [11] is: WR 1×10^8 pfu + HU, vs virus only.

Read-outs that look alike come from different tables or passages of the source.

From US20230096789A1, “PHARMACEUTICAL COMPOSITION FOR INHIBITING INFLAMMATORY RESPONSE COMPRISING HYDROXYUREA” (priority 2020, published 2023) come the findings set out here.

For `NC(=O)c1ncn([C@@H]2O[C@H](CO)[C@@H](O)[C@H]2O)n1` [ribavirin], the antiviral effect entry with H3N2 HongKong, in the data set with Lee and in the data set with H1N1 PR8 was “next clear effect” throughout.

In the case of `NC(=O)NO` [hydroxyurea], the survival in data set [1] (hydroxyurea 50 mg/kg q.d. days -2 to 14, until day 20, n=7) is given as 70%; in [4], “increased survival”; in the data set with mice given LPS (LPS+HU_30: 30 mg/kg/day, day -1 to day 3, once a day), “remarkably increased survival”; in the data set with mice given LPS (LPS+HU_60: 60 mg/kg/day, day -1 to day 3, twice a day) it was “remarkably increased survival”. Also, the body weight entry in data set [1] (hydroxyurea 50 mg/kg q.d., loss until day 10) is recorded as “recovered to the initial weight on day 20”. Further, the antiviral effect entry in the data set on H3N2 HongKong, with Lee and in the data set with H1N1 PR8 was “did not show any antiviral effect” in each case. Also, the “body weight / condition course” value in [2] (mouse, in vivo) was “returned to a healthy condition on day 18”. In data set [2] (n=7), this molecule came in with a surviving mice of 5 mice. The “number of virus particles in blood” value in data set [3] was “highest number of virus particles”; in data set [9] (day 8 after virus administration, co-administration vs virus only) it was “no significant difference”. For the same molecule, in data set [3], the “survival until day 21” value is reported as 40%. For the same molecule, the CC50 in the data set with MDCK cells is reported as 1,561 μg/ml. The “absolute neutrophil count (ANC)” value in data set [4] (WR high dose (1×10^7 pfu), HU 50 mg/kg/day) was “decreased absolute neutrophil count”; in [9] (co-administration group, blood), “decreased on average and remained stable”. In [4], the lung tissue histology result was “improved aspect”. Moreover, in [4] (lung tissue, between saline, G-CSF and HU groups), the “infection by immunofluorescence staining for protein A56 (bronchi)” value is recorded as “no significant difference between the three groups”. Besides, the “systemic inflammation and skin rash lesions (pustules)” value in data set [5] (VV^tk− 1×10^8 pfu + HU 80 mg/kg/day and 30 mg/kg/day, vs virus only) is “remarkably weakened systemic inflammation and inhibition of skin rash lesions such as pustules”; in data set [9] (WR 1×10^8 pfu + HU 80 mg/kg/day and 30 mg/kg/day, vs virus only), “remarkably weakened systemic inflammation and inhibition of skin rash lesions such as pustules”. Besides, the absolute neutrophil count result in data set [5] (co-administration) was “decreased on average and remained stable”. In addition, the “number of virus particles” value in [5] (co-administration) was “decreased on average and remained stable”. The body temperature entry in data set [5] (setting [10]) and in data set [9] (setting [11]) was “did not show any significant increase in body temperature” in each case. The body weight loss entry in data set [5] (setting [10]) and in data set [9] (setting [11]) was “no difference in body weight loss” in each case. Moreover, in data set [6], the “protective effect (survival, body weight)” value was “protective effect”. In addition, the “severity in leakage and exudate levels in the alveoli and ischemic change level in the liver tissue (order of groups)” value in [7] was “in the order of the group having received hydroxyurea, the group having received G-CSF, and the control group”. Also, the ANC entry in the data set on mice given LPS (LPS+HU_30) and in the data set with mice given LPS (LPS+HU_60) was “decreased ANC” throughout. Further, the “survival until day 12” value in data set [8] (hydroxyurea 30 mg/kg i.p. once a day) turned out to be 17%; in data set [8] (hydroxyurea 30 mg/kg i.p. twice a day), 43%. For the same molecule, the “absolute lymphocyte count (ALC)” value in [9] (co-administration group, blood) is “decreased on average and remained stable”. In addition, the “white blood cell count (WBC)” value in [9] (co-administration group, blood) was “decreased on average and remained stable”.

For `CCOC(=O)C1=C[C@@H](OC(CC)CC)[C@H](NC(C)=O)[C@@H](N)C1` [Tamiflu, oseltamivir], the survival result in data set [2] (mouse, in vivo) was “survived regardless of the concentration”.

For the molecule `NC12CC3CC(CC(C3)C1)C2` [AMT, amantadine], the antiviral effect result in the data set on H3N2 HongKong, in the data set on Lee and with H1N1 PR8 was “next clear effect” each time.

B1: G-CSF (protein, UniProt P09919 31-207, looked up)
Granulocyte …: TPLGPASSLPQSFLLKCLEQVRKIQGDGAALQEKLVSECATYKLCHPEELVLLGHSLGIPWAPLSSCPSQALQLAGCLSQLHSGLFLYQGLLQALEGISPELGPTLDTLQLDVADFATTIWQQMEELGMAPALQPTQGAMPAFASAFQRRAGGVLVASHLQSFLEVSYRVLRHLAQP
With B1, the “time within which all mice died after administration of the WR strain” value in [3] was not above 14 days. Besides, in [4], the survival result is reported as “decreased survival” and the lung tissue histology entry was “lung edema was observed”. For the same molecule, the “absolute neutrophil count (ANC)” value in [4] (WR low or high dose, G-CSF 25 μg/kg/day) was “remarkably increased absolute neutrophil count”. Also, the “severity in leakage and exudate levels in the alveoli and ischemic change level in the liver tissue (order of groups)” value in data set [7] was “in the order of the group having received hydroxyurea, the group having received G-CSF, and the control group”.
